The text below walks through data of patent US11040976B2, “Substrate selective inhibitors of insulin-degrading enzyme (IDE) and uses thereof” (President and Fellows of Harvard College, priority 2015, dated 2021).

For orientation: IC50 means the point on the concentration scale where inhibition reaches its midpoint.

Assay [1] concerns the target T1, IDE (R&D), substrate glucagon (Homo sapiens, UniProt P14735).
T1 construct: recombinant human IDE42-1019 (R&D Systems); purchased R&D
T1 sequence (P14735 42-1019): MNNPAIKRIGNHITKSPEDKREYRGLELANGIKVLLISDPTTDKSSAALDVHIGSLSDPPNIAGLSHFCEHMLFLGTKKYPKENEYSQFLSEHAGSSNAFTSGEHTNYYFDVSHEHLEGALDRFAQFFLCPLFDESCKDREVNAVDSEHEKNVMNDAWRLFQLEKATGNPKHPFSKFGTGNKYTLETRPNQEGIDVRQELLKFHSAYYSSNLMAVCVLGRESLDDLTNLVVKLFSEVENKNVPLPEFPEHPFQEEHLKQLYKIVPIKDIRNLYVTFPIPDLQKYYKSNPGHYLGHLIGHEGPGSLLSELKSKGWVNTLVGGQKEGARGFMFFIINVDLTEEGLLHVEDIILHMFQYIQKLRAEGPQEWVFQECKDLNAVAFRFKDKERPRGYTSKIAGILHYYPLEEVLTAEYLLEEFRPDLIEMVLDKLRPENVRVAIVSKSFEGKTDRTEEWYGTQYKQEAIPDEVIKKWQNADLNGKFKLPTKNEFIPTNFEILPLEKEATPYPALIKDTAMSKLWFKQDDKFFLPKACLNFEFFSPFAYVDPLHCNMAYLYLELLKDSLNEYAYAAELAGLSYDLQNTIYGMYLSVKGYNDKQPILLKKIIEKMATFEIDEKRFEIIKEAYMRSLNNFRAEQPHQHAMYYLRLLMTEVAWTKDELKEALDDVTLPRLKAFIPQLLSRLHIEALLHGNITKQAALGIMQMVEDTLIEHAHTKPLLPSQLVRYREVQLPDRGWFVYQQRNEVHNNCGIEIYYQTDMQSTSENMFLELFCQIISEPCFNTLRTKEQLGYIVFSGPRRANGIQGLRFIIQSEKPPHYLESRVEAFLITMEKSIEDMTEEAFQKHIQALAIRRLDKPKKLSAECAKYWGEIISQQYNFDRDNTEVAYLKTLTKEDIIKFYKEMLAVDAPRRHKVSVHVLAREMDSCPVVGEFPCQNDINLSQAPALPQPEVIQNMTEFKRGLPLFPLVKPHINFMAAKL
Nature of the assay: HTRF assay for IDE-mediated degradation of glucagon. It counts as biochemical. The conditions noted are these: compounds 67 μM, 0° C. for 10 minutes, versus DMSO alone, FIG. 5. How it is done: A solution of 0.05 μg/mL IDE (R&D) in “Diluent #5” (CisBio, 24 μL) was transferred to a 200 μL tube strip, and combined with 1 μL of each inhibitor (10 mM in DMSO, or as a 3-fold dilution series). […] This procedure was optimized to result in ˜75% degradation of glucagon. The reaction was terminated by 1 μL of inhibitor Ii1 (5 μM) and chilled on ice. The remaining glucagon was quantified using 10 μL of the quenched enzymatic reaction using the sensitive-range protocol Homogeneous Time-Resolved FRET Glucagon assay (CisBio® 62GLCPEF, see FIG. 3) in 20 μL total volume according to the manufacturer's instructions (384 well-plate Greiner 784904 non-binding). Fluorescence was measured using a Tecan M1000Pro plate reader (excitation=340 nm, emission=665 and 620 nm, lag time=60 μs) according the assay manufacturer's recommendations. Blank wells and glucagon standard curve were included in the assay.
FIG. 4 compares the determined endpoint for insulin degradation with of glucagon degradation for a DMSO control, 6bK at 10 μM, and exemplary compounds of the invention at concentrations of 67 μM.
The HTRF endpoint assay for insulin and glucagon was performed over a range of concentrations for several potential inhibitors and for 6bK.
(TR-FRET usually uses a lanthanide donor and a delayed reading to cut background.)

Assay [2] concerns the target T2, Human N-His6-IDE42-1019 (E. coli expressed) (Homo sapiens, UniProt P14735).
T2 construct: Human N-His6-IDE42-1019 (E. coli expressed); made in house; host or cells: E. coli (Rosetta 2 (DE3) pLysS, plasmid pTrcHis-A)
T2 sequence (P14735 42-1019): T1 sequence (P14735 42-1019)
Nature of the assay: Fluorescence anisotropy high-throughput screening assay (displacement of probe FL-6b). Format: binding. To be noted: final compound concentration 20 μM (6bK control 1 μM); values without asterisk. How it is done: The fluorescence anisotropy screening method and probe FL-6b are described in PCT application PCT/US2014/064322, incorporated herein by reference.
Human N-His6-IDE42-1019 (E. coli expressed) was mixed with fluorescein-labeled macrocycle FL-6b:
[drawing 802] in 50 mM Tris buffer pH 8.0, with 1 M NaCl, at 25° C. Optimum signal was obtained using a mixture of […] probe FL-6b and 0.5 μM IDE. The “diversity-oriented (DOS) synthesis informer set” compound plates were pinned onto 384-well plates containing the enzyme-probe mixture (50 μL/well). The azetidine screen was pre-printed on 384-well plates and the enzyme-probe mixture was added (50 μL/well). The final compound concentration was 20 μM. IDE inhibitor 6bK was used as a positive control at a final concentration of 1 μM. After 30 minutes of equilibration, the increase in fluorescence anisotropy was recorded using an EnVision spectrophotometer (excitation 492 nm, emission 523 nm). The fluorescence anisotropy was independently measured twice for each screened compound. The Z-scores for each pair of measurements are plotted in FIG. 1A (DOS informer set) and FIG. 1B (azetidines), and average Z-scores are listed for exemplary compounds in Table E1.
Z-scores were calculated based on the raw anisotropy measured for each well according to Eq. 1, wherein x is the raw anisotropy value of the well, μ is the mean of the anisotropy of the negative control wells (DMSO) for the plate, and σ is the standard deviation in anisotropy of the negative control wells (DMSO) for the plate.
In general terms: Fluorescence polarisation rises when a labelled molecule tumbles more slowly, as on binding a larger partner.

Assay [3] deals with T3, recombinant human IDE42-1019 (Homo sapiens, UniProt P14735).
T3 construct: recombinant human IDE42-1019 (R&D Systems); purchased R&D Systems
T3 sequence (P14735 42-1019): T1 sequence (P14735 42-1019)
The assay is described as follows: Protease assay with fluorogenic peptide substrate Mca-[…](Dnp)-OH. It counts as biochemical. To be noted: fluorogenic peptide Mca-RPPGFSAFK(Dnp)-OH; for IC50: apparent IC50 for compounds with submaximal inhibition, read-out: IC50 (μM) Proteolysis; for Emax: read-out: Imax (%) Proteolysis (inhibition maximum).

Setting [4] is: plateau at high inhibitor concentration.

In the case of `Cc1ccccc1-c1ccc([C@H]2[C@H](CO)N3C(=O)CN(C(=O)NC4CCCC4)C[C@@H]23)cc1` [compound 504], the “initial rates of glucagon cleavage” value in assay [1] was “enhanced”. Moreover, in assay [2], the “Average Z-score (Fluorescence anisotropy)” value (shortened to “Average Z-score”) was −20.82. Moreover, in assay [3], the IC50 was determined as 0.8 µM.
As for `CCCNC(=O)N1CC(=O)N2[C@H](CO)[C@@H](c3ccc(-c4cccc(C)c4)cc3)[C@@H]2C1` [compound 779], in assay [1], the “initial rates of glucagon cleavage” value was “reduced”. For the same compound, the “Average Z-score” value in assay [2] is −22.36. For the same compound, in assay [3], the IC50 was 0.8 µM. In addition, the Emax in assay [3] (setting [4]) came to 60%.
In the case of `Cc1cccc(-c2ccc([C@@H]3[C@@H](CO)N4C(=O)CN(C(=O)Cc5ccccn5)C[C@@H]34)cc2)c1` [compound 348], the “Average Z-score” value in assay [2] is reported as −11.8. Moreover, the IC50 in assay [3] is 7 µM. In addition, the Emax in assay [3] (setting [4]) worked out at 40%.
With `Cc1ccccc1-c1ccc([C@H]2[C@@H](CO)N3CCCCN(C(=O)Nc4ccc(F)cc4)C[C@@H]23)cc1` [compound 226], the “Average Z-score” value in assay [2] is given as −1.67. Further, in assay [3] (setting [4]), the Emax is 30%.
As to `Cc1ccccc1-c1ccc([C@H]2[C@H](CO)N3C(=O)CN(S(C)(=O)=O)C[C@@H]23)cc1` [compound 061], the “Average Z-score” value in assay [2] is on record as −1.36. The IC50 in assay [3] is more than 100 µM.
On to `Cc1ccccc1-c1ccc([C@@H]2[C@@H](CO)N3CCCCN(S(C)(=O)=O)C[C@@H]23)cc1` [compound 591], for which the “initial rates of glucagon cleavage” value in assay [1] was “enhanced”. Also, the “Average Z-score” value in assay [2] is given as −17.90. The IC50 in assay [3] came out at 1.5 µM. Also, the Emax in assay [3] (setting [4]) came to 40%.
Consider `Cc1cccc(-c2ccc([C@@H]3[C@@H](CO)N4CCCCN(Cc5cncnc5)C[C@@H]34)cc2)c1` [compound 654], for which the “Average Z-score” value in assay [2] is −6.65. For the same compound, the IC50 in assay [3] is more than 100 µM.
Take `Cc1cccc(-c2ccc([C@@H]3[C@@H](CO)N4CCCCN(C(=O)c5cccnc5)C[C@@H]34)cc2)c1` [compound 296]: the “Average Z-score” value in assay [2] was −3.25. The half-inhibitory concentration (IC50) in assay [3] is more than 100 µM.
Consider `Cc1cccc(-c2ccc([C@@H]3[C@@H](CO)N4CCCCN(CCC(F)(F)F)C[C@@H]34)cc2)c1` [compound 073], for which the “Average Z-score” value in assay [2] is −0.68. The IC50 in assay [3] was more than 50 µM.
For `COc1ccccc1-c1ccc(C2C3CN(C(=O)c4cccnc4)CC2N3)cc1` (stereo not shown) [C4], the “Average Z-score” value in assay [2] was −13.76. Besides, in assay [3], the IC50 was determined as 7.5 µM. Further, the Emax in assay [3] (setting [4]) came out at 70%.
For the compound `COc1ccccc1-c1ccc([C@H]2[C@@H](CO)N(C(=O)NC(C)C)[C@H]2C#N)cc1` [D2], the “Average Z-score” value in assay [2] is −16.33. Also, the Emax in assay [3] (setting [4]) came out at 100%.
On to `Cc1ccccc1-c1ccc(C2C3CN(S(=O)(=O)c4cn(C)cn4)CC2N3)cc1` (stereo not shown) [C2], for which the “Average Z-score” value in assay [2] is on record as −16.62. For the same compound, the IC50 in assay [3] came out at 7 µM. Moreover, the Emax in assay [3] (setting [4]) turned out to be 50%.
Consider `O=C(CC1CC1)N1CC(=O)N2[C@H](C1)[C@H](c1ccc(C#Cc3ccccc3)cc1)[C@@H]2CO` [compound 187], for which the “Average Z-score” value in assay [2] is listed as −15.91. Further, the IC50 in assay [3] is more than 20 µM.
Regarding `Cc1ccccc1-c1ccc([C@H]2[C@@H](CO)N3C(=O)CN(C(=O)c4cccnc4)C[C@H]23)cc1` [compound 3421], in assay [2], the “Average Z-score” value is listed as −17.16. Moreover, the IC50 in assay [3] came to 2 µM. Further, the Emax in assay [3] (setting [4]) turned out to be 60%.
For `Cc1ccccc1-c1ccc([C@H]2[C@@H](CO)N3CCCCN(C(=O)c4cccnc4)C[C@H]23)cc1` [compound 397], the “Average Z-score” value in assay [2] is listed as −11.37. Also, the “Imax (%) Proteolysis (inhibition maximum)” value in assay [3] (setting [4]) is listed as 70%.
On to `Cc1ccccc1-c1ccc([C@H]2[C@@H](CO)N3C(=O)CN(C(=O)Cc4ccccn4)C[C@@H]23)cc1` [compound 805], for which the “Average Z-score” value in assay [2] was −17.31. Moreover, in assay [3], the 50% inhibitory concentration (IC50) turned out to be 2.5 µM. For the same compound, the Emax in assay [3] (setting [4]) worked out at 70%.
On to `O=C(c1ccccn1)N1CC(=O)N2[C@@H](CO)[C@@H](c3ccc(C#Cc4ccccc4)cc3)[C@@H]2C1` [compound 479], for which, in assay [2], the “Average Z-score” value is given as −19.91. For the same compound, in assay [3], the IC50 is less than 10 µM. In addition, the Emax in assay [3] (setting [4]) is approximately 100%.
As to `Cc1cccc(-c2ccc([C@@H]3[C@@H](CO)N4C(=O)CN(C(=O)c5cnccn5)C[C@@H]34)cc2)c1` [compound 653], the “Average Z-score” value in assay [2] is −17.51. Further, in assay [3] (setting [4]), the Emax was determined as 90%.
With `OC[C@H]1[C@@H](c2ccc(C#Cc3ccccc3)cc2)[C@@H]2CN(Cc3cncnc3)CCCCN12` [compound 525], the “Average Z-score” value in assay [2] is listed as −16.2. The IC50 in assay [3] was less than 10 µM. The Emax in assay [3] (setting [4]) was approximately 100%.
In the same order, the values of `CCS(=O)(=O)N1CCCCN2[C@@H](CO)[C@@H](c3ccc(C#Cc4ccccc4OC)cc3)[C@@H]2C1` [compound 964] are −19.69, 2.5 µM and 90%.
Consider `COc1ccccc1-c1ccc([C@H]2[C@@H](CO)N3CCCCN(C(=O)c4ccncc4)C[C@H]23)cc1` [compound 586], for which, in assay [2], the “Average Z-score” value was −17.17. Also, in assay [3], the IC50 amounted to 7 µM. The Emax in assay [3] (setting [4]) amounted to 70%.
`Cc1cccc(-c2ccc([C@@H]3[C@H]4CN(C(=O)c5ccncc5)CCCCN4[C@H]3CO)cc2)c1` [compound 316]: the “Average Z-score” value in assay [2] is −16.96. The IC50 in assay [3] is more than 10 µM.
For the compound `Cc1cccc(-c2ccc([C@@H]3[C@@H](CO)N4CCCCN(S(=O)(=O)c5cn(C)cn5)C[C@@H]34)cc2)c1` [compound 342], the “Average Z-score” value in assay [2] is on record as −17.53. The IC50 in assay [3] was determined as 0.6 µM. The Emax in assay [3] (setting [4]) worked out at 50%.
